Assay results as given in ChEMBL document CHEMBL4311950, “Hip To Be Square: Oxetanes as Design Elements To Alter Metabolic Pathways” (J Med Chem, 2019).
Values after ≈ are worked out from the molar mass of the structure shown.

What was measured:
[1] = physchem; details: buffer, pH 7.4
Description: Aqueous solubility of the compound in pH 7.4 HBSS buffer HPLC-MS analysis

[2] = in vitro; details: human, hepatocytes
Description: Intrinsic clearance in human hepatocytes assessed per million cells at 50 uM in presence of NADPH by HPLC-MS analysis

[3] = physchem; details: pH 2.3
Description: Dissociation constant, pKa of compound at pH 2.3 to 10.8 by pressure assisted capillary electrophoresis-MS analysis

[4] = physchem; details: octanol/water, pH 7.4
Description: Octanol-water distribution coefficient, log D of the compound at pH 7.4 by RP-HPLC analysis

[5] = in vitro; details: human, liver microsomes
Description: Intrinsic clearance in human liver microsomes at 50 uM in presence of NADPH by HPLC-MS analysis

| Compound | solubility [1] | hepatocyte CLint at 50 µM [2] | pKa [3] | logD [4] | microsomal CLint at 50 µM [5] |
| --- | --- | --- | --- | --- | --- |
| COc1cc(OC2CN(C(=O)c3nnc(-c4ccccc4)o3)C2)ccc1CN1CCCC12COC2 | 60 µM (≈ 28.6 µg/mL) | 27.5 µL/min/1e6 cells | 8 | 3.8 | – |
| COc1cc(CN2CCCC23COC3)ccc1OC1CN(C(=O)c2nnc(-c3ccccc3)o2)C1 | 221 µM (≈ 105 µg/mL) | 25 µL/min/1e6 cells | 6 | 3.5 | – |
| COc1cc(CN2CCCC23COC3)ccc1OC1CN(C(=O)c2nnc(-c3ccc(C(F)F)cc3)o2)C1 | 39 µM (≈ 20.5 µg/mL) | 38.5 µL/min/1e6 cells | 6.1 | 3.8 | – |
| Cc1cc(OC2CN(C(=O)c3nnc(-c4ccccc4)o3)C2)ccc1CN1CCCC2(COC2)C1 | – | – | 7.6 | 3.6 | – |
| O=C(NC1C2CC3CC1CC(O)(C3)C2)c1cnc(OC2COC2)nc1C1CCCC1 (configuration not stated) | 476 µM (≈ 197 µg/mL) | – | 2.6 | 1.9 | 2.8 µL/min/mg |
| COc1ccc(CN2CCCC23COC3)cc1 | 610 µM (≈ 142 µg/mL) | – | – | 1.8 | 8.1 µL/min/mg |
| COc1ccc(CN2CCCC3(COC3)C2)cc1 | 744 µM (≈ 184 µg/mL) | – | 8.08 | 1.5 | 28.3 µL/min/mg |
| O=C(NC1C2CC3CC1CC(O)(C3)C2)c1cnc(OC2COC2)nc1C1CCC1 (configuration not stated) | 818 µM (≈ 327 µg/mL) | – | – | 1.6 | 6.1 µL/min/mg |
| O=C(c1nnc(-c2ccccc2)o1)N1CC(Oc2ccc(CN3CC4(COC4)C3)c(Cl)c2)C1 | 90 µM (≈ 42 µg/mL) | 32.7 µL/min/1e6 cells | 7.7 | 3 | – |
| O=C(NC1C2CC3CC1CC(O)(C3)C2)c1cnc(NC2COC2)nc1C1CC1 (configuration not stated) | 580 µM (≈ 223 µg/mL) | – | 2.8 | 1.1 | < 2 µL/min/mg |
| COc1ccc(CN2CCC3(CC2)COC3)cc1 | 750 µM (≈ 186 µg/mL) | – | 8.56 | 0.8 | 20.6 µL/min/mg |
| COc1cc(CN2CC3(COC3)C2)ccc1OC1CN(C(=O)c2nnc(-c3ccc(C(F)F)cc3)o2)C1 | 82 µM (≈ 42 µg/mL) | 19.5 µL/min/1e6 cells | 8.9 | 2.2 | – |
| O=C(c1nnc(-c2ccccc2)o1)N1CC(Oc2ccc(CN3CC4(COC4)C3)cc2Cl)C1 | 76 µM (≈ 35.5 µg/mL) | 12.4 µL/min/1e6 cells | 7.5 | 2.7 | – |
| O=C(NC1C2CC3CC1CC(O)(C3)C2)c1cnc(NC2COC2)nc1C1CCCC1 (configuration not stated) | > 1820 µM | – | 2.6 | 2.1 | < 2 µL/min/mg |
| O=C(NC1C2CC3CC1CC(O)(C3)C2)c1cnc(OC2COC2)nc1C1CC1 (configuration not stated) | 867 µM (≈ 334 µg/mL) | – | – | 2 | < 2 µL/min/mg |
| COc1ccc(CN2CC3(COC3)C2)cc1 | 364 µM (≈ 79.8 µg/mL) | – | 8.25 | 0.4 | < 3 µL/min/mg |
| O=C(NC1C2CC3CC1CC(O)(C3)C2)c1cnc(NC2COC2)nc1C1CCC1 (configuration not stated) | > 2520 µM | – | 2.4 | 1.6 | < 3.5 µL/min/mg |

Results, then the compound that gave them:

| solubility [1] | hepatocyte CLint at 50 µM [2] | pKa [3] | logD [4] | microsomal CLint at 50 µM [5] | Compound |
| --- | --- | --- | --- | --- | --- |
| 495 µM (≈ 236 µg/mL) | 10.4 µL/min/1e6 cells | – | – | – | COc1ccc(-c2nnc(C(=O)N3CC(Oc4ccc(CN5CC6(CCCO6)C5)cc4)C3)o2)cc1 |
| 3 µM (≈ 1.43 µg/mL) | 48.7 µL/min/1e6 cells | 6 | – | – | COc1ccc(-c2nnc(C(=O)N3CC(Oc4ccc(CN5CCCC56COC6)cc4)C3)o2)cc1 |
| 43 µM (≈ 22.6 µg/mL) | 42.7 µL/min/1e6 cells | 7 | 4.2 | – | COc1cc(OC2CN(C(=O)c3nnc(-c4ccc(C(F)F)cc4)o3)C2)ccc1CN1CCCC12COC2 |
| 89 µM (≈ 38.5 µg/mL) | 6.1 µL/min/1e6 cells | 8 | – | – | O=C(c1nnc(-c2ccccc2)o1)N1CC(Oc2ccc(CN3CC4(COC4)C3)cc2)C1 |
| 82 µM (≈ 39.1 µg/mL) | 10.8 µL/min/1e6 cells | – | – | – | COc1ccc(-c2nnc(C(=O)N3CC(Oc4ccc(CN5CC6(CCOC6)C5)cc4)C3)o2)cc1 |
| 3 µM (≈ 1.39 µg/mL) | 38 µL/min/1e6 cells | 7.3 | 2.9 | – | COc1ccc(-c2nnc(C(=O)N3CC(Oc4ccc(CN5CC6CC(C5)O6)cc4)C3)o2)cc1 |
| 51 µM (≈ 25.4 µg/mL) | 27.2 µL/min/1e6 cells | – | 2.5 | – | O=C(c1nnc(-c2ccc(OC(F)F)cc2)o1)N1CC(Oc2ccc(CN3CC4(COC4)C3)cc2)C1 |
| 73 µM (≈ 34.8 µg/mL) | 17 µL/min/1e6 cells | 8.2 | 2.6 | – | COc1ccc(-c2nnc(C(=O)N3CC(Oc4ccc(CN5CC6(COC6)C5)c(C)c4)C3)o2)cc1 |
| – | – | 8 | 3 | – | COc1ccc(-c2nnc(C(=O)N3CC(Oc4ccc(CN(C)CC5(C)COC5)c(C)c4)C3)o2)cc1 |
| 61 µM (≈ 28.3 µg/mL) | – | 8.2 | 2 | 103 µL/min/mg | COc1ccc(-c2nnc(C(=O)N3CC(Oc4ccc(CNCC5(C)COC5)cc4)C3)o2)cc1 |
| 74 µM (≈ 35.3 µg/mL) | 18.6 µL/min/1e6 cells | 8.4 | 2.5 | – | COc1ccc(-c2nnc(C(=O)N3CC(Oc4ccc(CN5CC6(COC6)C5)cc4C)C3)o2)cc1 |
| 86 µM (≈ 41.5 µg/mL) | 5.3 µL/min/1e6 cells | 8.5 | 2.4 | – | O=C(c1nnc(-c2ccc(C(F)F)cc2)o1)N1CC(Oc2ccc(CN3CC4(COC4)C3)cc2)C1 |
| 735 µM (≈ 331 µg/mL) | 1.9 µL/min/1e6 cells | 8.2 | 2 | – | O=C(c1nnc(-c2ccc(F)cc2)o1)N1CC(Oc2ccc(CN3CC4(COC4)C3)cc2)C1 |
| 3 µM (≈ 1.4 µg/mL) | – | – | – | > 300 µL/min/mg | COc1ccc(-c2nnc(C(=O)N3CC(Oc4ccc(COCC5(C)COC5)cc4)C3)o2)cc1 |
| 87 µM (≈ 44.6 µg/mL) | 19.4 µL/min/1e6 cells | 8.2 | 2.1 | – | COc1cc(OC2CN(C(=O)c3nnc(-c4ccc(C(F)F)cc4)o3)C2)ccc1CN1CC2(COC2)C1 |
